Data published in US7589062B2, “Two synthetic peptides for treatment and prevention of cancers” (priority 2002, dated 2009).
Where no end group is shown, it is not given here.

Experiments:
BT-20 - cancer of breast = assay: Cytolytic effect on cancer cells in culture, read microscopically; format: cell-based, human
Method: (§1) Biological cytolytic activity of AT and KT at various concentrations ranging from […], 6.25, 12.5 and 25 μg/ml were tested on human cancer cells and SP/2 mouse myeloma cells. The combination AT+KT was 50% by weight of each.

[1] = test system: HBL-100 - cancer of breast; assay: as above; format: cell-based, human
Method: as §1

[2] = test system: Sk-ov-3 - cancer of ovary; assay: as above; format: cell-based, human
Method: as §1

HT-29 - cancer of colon = assay: as above; format: cell-based, human
Method: as §1

SP/2 - mouse myeloma = assay: as above; format: cell-based
SP/2 cancer cells = assay: Anti cancer activity in vivo: survival of mice injected i.p. with SP/2 cancer cells (ascitic tumors); conditions: Balb/c mice, 2 million SP/2 cells i.p.; 100 μg/mouse for seven consecutive days; PBS control 23 days
Method: Anti Cancer Activity of Synthetic AT and KT In Vivo: Adult Balb/c mice were injected intra-peritoneally with 0.5 ml containing 2 million SP/2 cancer cells. Mice were divided into four groups. Starting from day one of post injection the mice were treated with AT and KT individually and the combination of both at 200 μg/ml concentration. Doses of 0.5 ml containing 100 μg/mouse were given for seven consecutive days and the control mice received 0.5 ml PBS.

CCL-13 - cancer of mouth = assay: Cytolytic effect on cancer cells in culture, read microscopically; format: cell-based, human
SP/2 cells = assay: Cytolytic activity of trypsin digested fragments of AT and KT on SP/2 cells; format: cell-based, mouse; conditions: 10^5 SP/2 cells, 20-1.0 μg/ml, read after three days
Method: Biological Activity of Fragments on SP/2 cells: The cytolytic activity of the trypsin digested fragments of AT and KT were tested on 10^5 SP/2 cells. Dulbecco Modified Eagle's Medium (DMEM) containing 10% newborn calf serum (NBCS), L-glutamine and antibiotics penicillin and streptomycin was used to grow SP/2 cells. Initially, each fraction was tested on cells grown in 48 well plate at 37° C. in a humid CO2 incubator. The serum free medium containing different concentrations such as 20, 10, 5, 2.5 and 1.0 μg/ml of each fragment was tested. Control cells received PBS to serve as controls.
The tests were read after three days. […] Those fragments were considered as the active domains for cancer cell inhibitor. […] The fragment 6 for AT and the fragment 10 for KT were considered as the active domains for cytolytic activity.

[3] = comparison of syn KT with syn AT

Sequence	% Cytolyic cells BT-20 (BT-20 - cancer of breast; 3.12 μg/ml)	% Cytolyic cells BT-20 (BT-20 - cancer of breast; 6.25 μg/ml)	% Cytolyic cells BT-20 (BT-20 - cancer of breast; 12.5 μg/ml)	% Cytolyic cells BT-20 (BT-20 - cancer of breast; 25 μg/ml)	% Cytolyic cells HBL-100 ([1]; 3.12 μg/ml)	% Cytolyic cells HBL-100 ([1]; 6.25 μg/ml)	% Cytolyic cells HBL-100 ([1]; 12.5 μg/ml)	% Cytolyic cells HBL-100 ([1]; 25 μg/ml)	% Cytolyic cells Sk-ov-3 ([2]; 3.12 μg/ml)	% Cytolyic cells Sk-ov-3 ([2]; 6.25 μg/ml)	% Cytolyic cells Sk-ov-3 ([2]; 12.5 μg/ml)	% Cytolyic cells Sk-ov-3 ([2]; 25 μg/ml)	% Cytolyic cells HT-29 (HT-29 - cancer of colon; 3.12 μg/ml)	% Cytolyic cells HT-29 (HT-29 - cancer of colon; 6.25 μg/ml)	% Cytolyic cells HT-29 (HT-29 - cancer of colon; 12.5 μg/ml)	% Cytolyic cells HT-29 (HT-29 - cancer of colon; 25 μg/ml)	% Cytolyic cells SP/2 (SP/2 - mouse myeloma; 3.12 μg/ml)	% Cytolyic cells SP/2 (SP/2 - mouse myeloma; 6.25 μg/ml)	% Cytolyic cells SP/2 (SP/2 - mouse myeloma; 12.5 μg/ml)	% Cytolyic cells SP/2 (SP/2 - mouse myeloma; 25 μg/ml)	also measured
FCRFLLCPSR (cysteine pairing not given here) [Atroporin]	0%	0%	50%	100%	0%	0%	50%	100%	0%	100%	100%	100%	0%	0%	100%	100%	0%	0%	50%	100%	Cytolytic effect compared in similar concentration, Sk-ov-3 ([2]; comparison of syn AT with the other peptide): more cytolytic; Survival (incubation period for development of ascitic tumors to cause death) (SP/2 cancer cells): 30 days; % Cytolyic cells CCL-13 (CCL-13 - cancer of mouth; 3.12 μg/ml): 0%; % Cytolyic cells CCL-13 (CCL-13 - cancer of mouth; 6.25 μg/ml): 50%; % Cytolyic cells CCL-13 (CCL-13 - cancer of mouth; 12.5 μg/ml): 100%; % Cytolyic cells CCL-13 (CCL-13 - cancer of mouth; 25 μg/ml): 100%
FCRFLLCPSRSLL (cysteine pairing not given here) [fragment 6 for AT]	–	–	–	–	–	–	–	–	–	–	–	–	–	–	–	–	–	–	–	–	Cytolytic activity of trypsin digested fragments, ranking among fragments (SP/2 cells): most active
PPGNQPDADS [Kaotree]	0%	0%	75%	100%	0%	50%	100%	100%	0%	50%	100%	100%	0%	0%	100%	100%	0%	50%	100%	100%	Cytolytic effect compared in similar concentration, BT-20 (BT-20 - cancer of breast; [3]): more cytolytic than AT; Cytolytic effect compared in similar concentration, HBL-100 [1, 3]: more cytolytic than AT; Survival (incubation period for development of ascitic tumors to cause death) (SP/2 cancer cells): 37 days; % Cytolyic cells CCL-13 (CCL-13 - cancer of mouth; 3.12 μg/ml): 0%; % Cytolyic cells CCL-13 (CCL-13 - cancer of mouth; 6.25 μg/ml): 0%; % Cytolyic cells CCL-13 (CCL-13 - cancer of mouth; 12.5 μg/ml): 100%; % Cytolyic cells CCL-13 (CCL-13 - cancer of mouth; 25 μg/ml): 100%
PPGNQPDADSN [fragment 10 for KT]	–	–	–	–	–	–	–	–	–	–	–	–	–	–	–	–	–	–	–	–	Cytolytic activity of trypsin digested fragments, ranking among fragments (SP/2 cells): most active
